# Activity calls are given as the source filed them. The calls are words filed in the database; no cut-off is given here.
# Legend:
# Type in all cases: cell-based
# Conditions in all cases: Cardiac atrium
# Pelophylax lessonae [1] = test: Inhibition of PP2A in frog atrial myocytes by microscystin assay
# Pelophylax lessonae [2] = test: Decrease in cellular cGMP level in frog atrial myocytes at 4 uM by immunoassay; set-up: scale not given: the % may be the effect or the level left
# Pelophylax lessonae [3] = test: Activity at L-type calcium channel in frog atrial myocytes assessed as increase in Sr2+ current
# Pelophylax lessonae [4] = test: Inhibition of NOS2 in frog atrial myocytes
structure (smiles),measurement,setting,value
Cc1cc(O)c2c(=O)c3c(O)cc(O)c4c5c(O)cc(O)c6c(=O)c7c(O)cc(C)c8c1c2c(c34)c(c78)c65,Activity,Pelophylax lessonae [1],inactive
same,Activity,Pelophylax lessonae [2],69%
same,Activity,Pelophylax lessonae [3],Dose-dependent effect
same,Activity,Pelophylax lessonae [4],inactive

# Reference: ChEMBL document CHEMBL1142100, “Hypericin activates L-type Ca2+ channels in cardiac myocytes” (J Nat Prod, 2007)
